The record followed here is ChEMBL document CHEMBL1201862, “PubChem BioAssay data set” (2004).

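Cultured in 96-well plates, cells were exposed to test compound for 48 hours across five concentrations. GI50 = concentration required for 50% inhibition of growth.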 The source made the active and inactive calls. Rule as the data show it: active = GI50 up to about 1.1 µM and inactive = higher.

Some test systems named below: 786-0; A498; A549; HCC 2998; HCT-15; HOP-62; Hs-578T; NCI-H226; NCI-H23; NCI/ADR-RES; OVCAR-4; OVCAR-8; SK-OV-3; SN12C; SNB-75; U-251; HL-60; RXF 393; CCRF-CEM.
What all share (experiment): inhibition of tumour cell growth, NCI panel, 48 h

As for `Cc1ccc(S(=O)(=O)c2ccsc2NC(=O)c2ccccc2)cc1`, the GI50 in the test with 786-0 was 23 µM (inactive); in the test with A498, 45.9 µM (inactive); with A549, 48.1 µM (inactive); in the test on HCC 2998 it was > 100 µM (inactive); in the test with HCT-15 it was over 100 µM; with HOP-62 it was 17 µM (inactive). The GI50 in the test with Hs-578T was 17.3 µM (inactive); in the test on NCI-H226, > 60.4 µM (inactive); with NCI-H23, > 31.6 µM (inactive); in the test on NCI/ADR-RES, 35.2 µM (inactive); with OVCAR-4 it was 20.9 µM (inactive); in the test with OVCAR-8, 28.6 µM (inactive). For the same molecule, the GI50 in the test on SK-OV-3 is 46.9 µM (inactive); in the test with SN12C, > 100 µM (inactive); in the test with SNB-75, 28.2 µM (inactive); in the test on U-251 it was 49.3 µM (inactive).

As for `O=C(O)CCC[C@]1(O)O[C@@]2(CCCC2=O)[C@]2(O)CCC[C@@]21O`, the GI50 in the test with 786-0 is > 100 µM (inactive); in the test with A498, > 100 µM (inactive); with A549, > 100 µM (inactive); in the test with HCT-15, over 100 µM; in the test with HL-60, > 100 µM (inactive); with HOP-62 it was > 100 µM (inactive). In addition, the GI50 with Hs-578T, with NCI-H226, in the test with NCI-H23, with NCI/ADR-RES, in the test on OVCAR-4 and in the test on OVCAR-8 was > 100 µM (inactive) in each case. Moreover, the GI50 in the test with RXF 393, in the test with SN12C, with SNB-75 and with U-251 was > 100 µM (inactive) throughout.

`N#CC(C#N)=C(N)/C(C#N)=C/c1ccc2ccccc2n1`: the GI50 with 786-0 was 17.9 µM (inactive); in the test on A498, > 100 µM (inactive); in the test with A549, > 100 µM (inactive); in the test on CCRF-CEM, 24.1 µM (inactive); in the test on HCC 2998 it was 77.3 µM (inactive); in the test on HCT-15, 28.8 µM. Also, the GI50 in the test with HOP-62 is 16 µM (inactive); in the test with Hs-578T, 21.7 µM (inactive); in the test on NCI-H226, 93.5 µM (inactive); in the test on NCI-H23, 31.6 µM (inactive); in the test on NCI/ADR-RES, 34.3 µM (inactive); in the test with OVCAR-4, 35.4 µM (inactive). For the same molecule, the GI50 in the test on OVCAR-8 is 30.5 µM (inactive); in the test with RXF 393, 20 µM (inactive); with SK-OV-3, 35.3 µM (inactive); with SN12C it was 30.1 µM (inactive); in the test on SNB-75 it was 25.8 µM (inactive); with U-251 it was > 10 µM (inactive).

`C=CC[C@@H](N)C(=O)N(C)[C@@H](C)[C@@H](O)c1ccccc1`: the GI50 in the test with 786-0 was > 100 µM (inactive); in the test on A498, > 100 µM (inactive); in the test with A549 it was > 100 µM (inactive); in the test with CCRF-CEM it was > 100 µM (inactive); in the test with HCT-15, over 100 µM; in the test with HL-60, > 100 µM (inactive). The GI50 in the test with HOP-62, in the test on Hs-578T, in the test on NCI-H226, with NCI-H23, in the test on NCI/ADR-RES and with OVCAR-4 was > 100 µM (inactive) in each case. Also, the GI50 in the test with OVCAR-8 is > 100 µM (inactive); with SK-OV-3, > 100 µM (inactive); in the test on SNB-75, 5.77 µM (inactive); in the test on U-251 it was > 100 µM (inactive).

Consider `CC(C)CNP(=O)(NCC(C)C)Oc1ccc(CC(NC(=O)OCc2ccccc2)C(=O)OCc2ccccc2)cc1` (stereo not given), for which the GI50 in the test with 786-0 is 13.6 µM (inactive); in the test with A498 it was 22.5 µM (inactive); in the test with A549, 47.5 µM (inactive); in the test on CCRF-CEM, 4.99 µM (inactive); in the test on HCC 2998, 16.8 µM (inactive); with HCT-15, 26.9 µM. Moreover, the GI50 with HOP-62 is 14.7 µM (inactive); in the test on Hs-578T it was 28.4 µM (inactive); with NCI-H226, 56.1 µM (inactive); with NCI-H23, 15.3 µM (inactive); in the test on NCI/ADR-RES, 28.8 µM (inactive); with OVCAR-4, 18.3 µM (inactive). Moreover, the GI50 with OVCAR-8 is 17.3 µM (inactive); with RXF 393, 18.5 µM (inactive); in the test with SK-OV-3, 15.2 µM (inactive); in the test with SN12C it was 18.8 µM (inactive); with SNB-75, 19.5 µM (inactive); in the test on U-251, 16.5 µM (inactive).

On to `CC1=C(C(=O)OCCc2ccc([N+](=O)[O-])cc2)C(c2cccc([N+](=O)[O-])c2)C(C(=O)OC(C)C)=C(C)N1` (stereo not given), for which the GI50 with 786-0 is 6.49 µM (inactive); with A549 it was 4.99 µM (inactive); in the test with CCRF-CEM, 3.57 µM (inactive); in the test on HCC 2998, 75.9 µM (inactive); in the test on HCT-15 it was 5.47 µM; in the test on HL-60, 3.52 µM (inactive). The GI50 in the test on HOP-62 was 5.55 µM (inactive); in the test with Hs-578T, 2.86 µM (inactive); in the test on NCI-H226, 2.86 µM (inactive); in the test with NCI-H23, 4.3 µM (inactive); in the test with NCI/ADR-RES it was 3.33 µM (inactive); in the test on OVCAR-4 it was > 100 µM (inactive). The GI50 with OVCAR-8 is 4.88 µM (inactive); with RXF 393 it was 2.91 µM (inactive); in the test with SK-OV-3, > 100 µM (inactive); in the test with SN12C it was 11.8 µM (inactive); in the test on SNB-75, 5.69 µM (inactive); in the test with U-251, 5.69 µM (inactive).

For `COC1=CC(=O)N(C)C(O)C1(C#N)OC1OC(CO)C(O)C(O)C1O` (stereo not given), the GI50 is > 100 µM (inactive) in the test with 786-0; > 100 µM (inactive) in the test on A498; > 100 µM (inactive) in the test on A549; > 10 µM (inactive) in the test with CCRF-CEM; > 100 µM (inactive) in the test on HCC 2998; over 100 µM in the test on HCT-15. Moreover, the GI50 in the test with HL-60, in the test on HOP-62, with Hs-578T, in the test on NCI-H226, in the test with NCI-H23 and in the test on NCI/ADR-RES was > 100 µM (inactive) in each case. Further, the GI50 with OVCAR-4, in the test on OVCAR-8, in the test with SK-OV-3, with SN12C, in the test on SNB-75 and in the test with U-251 was > 100 µM (inactive) throughout.

Consider `CC1(C)OC(=O)C(C)(C)C(=O)O1`, for which the GI50 with 786-0 is > 100 µM (inactive); in the test with A549, > 100 µM (inactive); with CCRF-CEM, > 100 µM (inactive); in the test on HCC 2998, > 100 µM (inactive); in the test with HCT-15, over 100 µM; with HL-60, > 10 µM (inactive). Besides, the GI50 in the test on HOP-62, in the test on Hs-578T, with NCI-H226, in the test on NCI-H23, in the test on NCI/ADR-RES and in the test with OVCAR-4 was > 100 µM (inactive) each time. Moreover, the GI50 in the test with OVCAR-8, in the test with SK-OV-3, with SN12C, in the test on SNB-75 and in the test with U-251 was > 100 µM (inactive) throughout.

Turning to `CCc1n[nH]c(=O)n1-c1ccc2ccccc2c1`, the GI50 is > 100 µM (inactive) in the test with 786-0; > 100 µM (inactive) in the test with A498; > 100 µM (inactive) with A549; > 100 µM (inactive) with CCRF-CEM; > 100 µM (inactive) with HCC 2998; over 100 µM with HCT-15. The GI50 in the test with HOP-62, in the test on Hs-578T, in the test on NCI-H226, in the test on NCI-H23, in the test on NCI/ADR-RES and in the test with OVCAR-4 was > 100 µM (inactive) in each case. In addition, the GI50 in the test with OVCAR-8, in the test with RXF 393, in the test on SK-OV-3, in the test with SN12C, with SNB-75 and with U-251 was > 100 µM (inactive) each time.

On to `Cc1ccccc1N/N=C1\C(=O)Nc2ccccc21`, for which the GI50 in the test with 786-0 is > 100 µM (inactive); in the test on A549, > 100 µM (inactive); in the test on CCRF-CEM, > 100 µM (inactive); in the test on HCC 2998 it was > 100 µM (inactive); in the test with HCT-15, over 100 µM; with HL-60, > 100 µM (inactive). Further, the GI50 in the test on HOP-62 is > 100 µM (inactive); with Hs-578T, > 100 µM (inactive); with NCI-H226, 41.7 µM (inactive); with NCI-H23, > 100 µM (inactive); with NCI/ADR-RES it was > 100 µM (inactive); in the test with OVCAR-4, > 100 µM (inactive). In addition, the GI50 in the test with OVCAR-8 was > 100 µM (inactive); in the test on RXF 393, > 100 µM (inactive); in the test with SK-OV-3, > 100 µM (inactive); in the test on SN12C, 88.9 µM (inactive); in the test with SNB-75, > 100 µM (inactive); in the test with U-251, > 100 µM (inactive).

For `Clc1ccc(Cc2nc3ccccc3nc2-c2cccc(Cl)c2)cc1`, the GI50 with 786-0 was 1.84 µM (inactive); in the test on A549 it was 15.6 µM (inactive); in the test on CCRF-CEM, 0.0311 µM (active); in the test with HCC 2998, 1.85 µM (inactive); with HCT-15, 1.66 µM; in the test on HL-60 it was 2.51 µM (inactive). Also, the GI50 in the test with HOP-62 was 17.8 µM (inactive); in the test with Hs-578T, 3.47 µM (inactive); with NCI-H226 it was 20.3 µM (inactive); with NCI-H23, 13.5 µM (inactive); in the test with NCI/ADR-RES, 3.1 µM (inactive); in the test with OVCAR-4, 1.51 µM (inactive). In addition, the GI50 with OVCAR-8 was 3.56 µM (inactive); in the test with RXF 393 it was 2.04 µM (inactive); in the test on SK-OV-3, 17.2 µM (inactive); in the test with SN12C it was 2.94 µM (inactive); with U-251, 4.68 µM (inactive).

In the case of `CCOC(=O)CNC(=O)C(CSC(=O)N(O)c1ccc(Cl)cc1)NC(=O)CCC(N)C(=O)OCC` (stereo not given), the GI50 in the test on 786-0 was > 50 µM (inactive); in the test with A549, > 50 µM (inactive); in the test with CCRF-CEM, > 50 µM (inactive); in the test on HCC 2998 it was 4.75 µM (inactive); in the test with HCT-15, over 50 µM; with HOP-62 it was 24.3 µM (inactive). The GI50 was 1.9 µM (inactive) with Hs-578T; 1.32 µM (inactive) with NCI-H226; > 50 µM (inactive) with NCI-H23; > 50 µM (inactive) in the test on NCI/ADR-RES; > 50 µM (inactive) with OVCAR-8; > 50 µM (inactive) in the test on RXF 393. Moreover, the GI50 in the test on SK-OV-3, in the test with SN12C and with U-251 was > 50 µM (inactive) each time.
